± gives the standard deviation.
How the values were obtained:
[1] = chemical recovery by SPE of plasma after PDMS sampling; higher = better extraction; conditions: pooled human plasma, extraction method: HLB SPE of plasma after PES
[2] = chemical recovery into PDMS from spiked human plasma; higher = better extraction; conditions: pooled human plasma, extraction method: PES with PDMS
[3] = chemical recovery from spiked human plasma; higher = better extraction; conditions: pooled human plasma
[4] = extraction method: PES+SPE (3 d PDMS equilibration then HLB SPE)
[5] = extraction method: SPE only (HLB 96-well)
[6] = extraction method: SPE only (HLB 96-well), PES comparison experiment
[7] = extraction method: solvent precipitation (ACN + hexane)
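Throughout, for chemical recovery by SPE of plasma after PDMS sampling: over 400 spiked chemicals quantified by LC-HRMS or GC-HRMS via internal standard calibration, recovery relative to spike mix added to unspiked plasma extract to correct matrix effects.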

Row | Compound | chemical recovery by SPE of plasma ([1]; equilibration time (d): 1) | chemical recovery by SPE of plasma ([1]; equilibration time (d): 3) | chemical recovery by SPE of plasma ([1]; equilibration time (d): 6) | chemical recovery into PDMS ([2]; equilibration time (d): 1) | chemical recovery into PDMS ([2]; equilibration time (d): 3) | chemical recovery into PDMS ([2]; equilibration time (d): 6) | chemical recovery [3, 4] | chemical recovery [3, 5] | chemical recovery [3, 6] | chemical recovery [3, 7]
1 | c1ccc2sc(NC3CCCCC3)nc2c1 [N-Cyclohexyl-2-benzothiazole-amine] | 0.591 ± 0.065% | 0.595 ± 0.073% | 0.297 ± 0.037% | 32.4 ± 2.2% | 34 ± 3% | 34.2 ± 1.6% | 98.9 ± 11% | 51.9 ± 3.6% | 42.4 ± 6.5% | 74.8 ± 3.3%
2 | CCNS(=O)(=O)c1ccccc1C [N-Ethyl-o-toluenesulfonamide] | 19.8 ± 2.8% | 25.7 ± 2.5% | 18.8 ± 3% | 23.5 ± 1.3% | 23.2 ± 2.6% | 26.3 ± 2.6% | 52.7 ± 7.9% | 46.9 ± 1.4% | 52.6 ± 6.1% | 68.2 ± 2.2%
3 | c1ccc(Nc2cccc3ccccc23)cc1 [N-Phenyl-1-naphthylamine] | 2.23 ± 1.6% | 2.7 ± 0.69% | 1.86 ± 0.51% | 4.16 ± 1.3% | 6.12 ± 3.5% | 6.6 ± 1.1% |  | 45.8 ± 14% | 18.7 ± 4.1% | 83.2 ± 5.3%
4 | CCOC(=O)C1=C(C)NC(C)=C(C(=O)OC)C1c1cccc([N+](=O)[O-])c1 (configuration not stated) [Nitrendipin] | 7.61 ± 0.89% | 5.18 ± 0.19% | 2.81 ± 0.16% | 13.4 ± 0.56% | 17.4 ± 3.6% | 18.6 ± 1.1% | 37.1 ± 7.9% | 42.25 ± 0.22% | 51.5 ± 5.5% | 52.1 ± 2.9%
5 | C#C[C@]1(O)CC[C@H]2[C@@H]3CCC4=CC(=O)CC[C@@H]4[C@H]3CC[C@@]21C [Norethindrone] |  | 4.09 ± 7.1% | 3.48 ± 6% | 40.1 ± 2.1% | 46.1 ± 2.3% | 47.6 ± 1.2% |  |  | 54.2 ± 6.8% | 
6 | c1ccc2c(c1)[nH]c1cnccc12 [Norharmane] | 3.67 ± 0.43% | 2.75 ± 0.47% | 1.79 ± 0.061% | 24.8 ± 1.2% | 28.3 ± 0.84% | 29 ± 1.6% | 25.1 ± 5.9% | 39.6 ± 7.7% | 48 ± 6.7% | 77.7 ± 5.3%
7 | CNC(=O)CSP(=O)(OC)OC [Omethoate] |  | 13.5 ± 2.3% |  | 4.04 ± 3.2% | 5.92 ± 3.5% | 5.94 ± 4.2% |  | 12.4 ± 5.1% | 40.1 ± 8.6% | 
8 | CCCN(CCC)c1c([N+](=O)[O-])cc(S(N)(=O)=O)cc1[N+](=O)[O-] [Oryzalin] | 39.2 ± 5.2% | 33.9 ± 3% | 27.7 ± 1.7% | 6.21 ± 0.56% | 10 ± 0.76% | 11.1 ± 1.2% |  |  | 49.6 ± 5.5% | 
9 | O=C1Nc2ccc(Cl)cc2C(c2ccccc2)=NC1O (configuration not stated) [Oxazepam] | 29.1 ± 4% | 30.4 ± 2.4% | 27.7 ± 1.9% | 1.81 ± 0.18% | 3.65 ± 0.36% | 3.9 ± 0.52% | 41.3 ± 2.3% | 38 ± 3.2% | 46.6 ± 6% | 73.9 ± 3.5%
10 | Clc1ccc(Cl)c(-c2ccccc2Cl)c1 [PCB18] | 0.716 ± 0.48% | 0.693 ± 0.67% | 0.249 ± 0.43% | 48.2 ± 2.5% | 50.3 ± 10% | 46.5 ± 10% |  |  | 10 ± 1.9% | 
11 | Clc1ccc(Cl)c(-c2cccc(Cl)c2Cl)c1 [PCB44] | 1.35 ± 0.87% | 1.34 ± 0.13% | 1.42 ± 0.29% | 83.5 ± 2.1% | 90.2 ± 12% | 99.1 ± 11% | 44 ± 11% | 3.94 ± 0.74% | 18.4 ± 4% | 
12 | Clc1ccc(Cl)c(-c2cc(Cl)c(Cl)cc2Cl)c1 [PCB101] | 1.75 ± 1.3% | 1.62 ± 0.22% | 1.45 ± 0.38% | 88.4 ± 5.7% | 98.4 ± 14% | 96.9 ± 3.5% | 54.76 ± 0.33% | 1.78 ± 0.57% | 14 ± 2.6% | 91.2 ± 10%
13 | Clc1ccc(-c2cc(Cl)c(Cl)cc2Cl)cc1Cl [PCB118] | 2.43 ± 1.6% | 1.87 ± 0.24% | 1.71 ± 0.54% | 74.9 ± 4.3% |  |  |  | 0.333 ± 0.1% | 3.8 ± 7.6% | 32 ± 1.2%
14 | Clc1cc(Cl)c(-c2ccc(Cl)c(Cl)c2Cl)cc1Cl [PCB138] | 4.29 ± 2.9% | 1.78 ± 0.29% | 1.33 ± 0.48% | 67.4 ± 9.5% | 91.8 ± 1.4% | 89.4 ± 5.2% | 61.3 ± 12% | 2.27 ± 0.8% | 11.2 ± 2.8% | 81.6 ± 6.5%
15 | Clc1cc(Cl)c(-c2c(Cl)ccc(Cl)c2Cl)cc1Cl [PCB149] | 3.35 ± 2.2% | 1.54 ± 0.15% | 1.29 ± 0.33% |  | 103 ± 14% | 100 ± 8.1% | 56.86 ± 0.52% | 4.51 ± 1.5% | 10.4 ± 2% | 91 ± 6.8%
16 | Clc1cc(Cl)c(-c2cc(Cl)c(Cl)cc2Cl)cc1Cl [PCB153] | 4.72 ± 3% | 2.08 ± 0.28% | 1.44 ± 0.58% | 55.1 ± 6.8% | 86.4 ± 3.6% | 82.2 ± 2.6% | 62.9 ± 9% | 1.64 ± 0.63% | 10.3 ± 2.5% | 77.6 ± 3.5%
17 | Clc1cc(Cl)c(-c2cc(Cl)c(Cl)c(Cl)c2Cl)cc1Cl [PCB180] | 4.51 ± 2.9% | 3.71 ± 1% | 1.43 ± 0.49% |  | 67.8 ± 8% | 73.3 ± 5.7% | 40.2 ± 2.1% | 1.45 ± 0.68% |  | 
18 | Clc1cc(-c2cc(Cl)c(Cl)c(Cl)c2Cl)c(Cl)c(Cl)c1Cl [PCB194] | 3.6 ± 2.3% | 5.05 ± 1.1% | 2.4 ± 0.65% |  | 54.4 ± 6.3% | 63.4 ± 5.4% | 38.3 ± 2.4% | 0.915 ± 0.53% |  | 2.72 ± 0.18%
19 | Fc1ccc([C@@H]2CCNC[C@H]2COc2ccc3c(c2)OCO3)cc1 [Paroxetine] | 2.65 ± 0.22% | 3.11 ± 0.29% | 2.27 ± 0.16% | 0.404 ± 0.21% | 0.313 ± 0.1% | 0.637 ± 0.5% | 3.9 ± 1.1% | 63.1 ± 3.8% | 42.8 ± 9.2% | 61.7 ± 1.7%
20 | CCC(CC)Nc1c([N+](=O)[O-])cc(C)c(C)c1[N+](=O)[O-] [Pendimethalin] |  | 0.1 ± 0.17% |  | 45.8 ± 3% | 46.4 ± 4.9% | 47.5 ± 6.3% |  | 39 ± 11% | 32.3 ± 7.6% | 87.6 ± 9.3%
21 | CC(=O)CCCCn1c(=O)c2c(ncn2C)n(C)c1=O [Pentoxifylline] | 37.9 ± 5.9% | 33.6 ± 3.5% | 25.1 ± 4.3% | 17.2 ± 0.99% | 24.5 ± 3.9% | 27 ± 2.1% | 57.2 ± 6.1% | 46.9 ± 3.7% | 52.1 ± 4.9% | 76.5 ± 3.2%
